Experimental data published in PubChem BioAssay (NCI).
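1) Cells in 96-well plates. 2) Compound, 48 h, 5 concentrations. 3) Linear interpolation between surrounding doses. 4) Unreached endpoint = highest concentration. TGI is the concentration that stops growth completely.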

What was measured:
Experiment in all cases: NCI anticancer screen, dose series, 48 h
786-0 renal = system: 786-0 renal
A498 renal = system: A498 renal
A549 NSCLC = system: A549 NSCLC
ACHN renal = system: ACHN renal
BT-549 breast = system: BT-549 breast
CAKI-1 renal = system: CAKI-1 renal
CCRF-CEM leukemia = system: CCRF-CEM leukemia
COLO 205 colon = system: COLO 205 colon
DU-145 prostate = system: DU-145 prostate
EKVX NSCLC = system: EKVX NSCLC
HCC-2998 colon = system: HCC-2998 colon
HCT-116 colon = system: HCT-116 colon
HCT-15 colon = system: HCT-15 colon
HL-60(TB) leukemia = system: HL-60(TB) leukemia
HOP-62 NSCLC = system: HOP-62 NSCLC
HOP-92 NSCLC = system: HOP-92 NSCLC
HS 578T breast = system: HS 578T breast
HT29 colon = system: HT29 colon
IGROV1 ovarian = system: IGROV1 ovarian
K-562 leukemia = system: K-562 leukemia
KM12 colon = system: KM12 colon
LOX IMVI melanoma = system: LOX IMVI melanoma
M14 melanoma = system: M14 melanoma
MALME-3M melanoma = system: MALME-3M melanoma
MCF7 breast = system: MCF7 breast
MDA-MB-231 breast = system: MDA-MB-231 breast
MDA-MB-435 = system: MDA-MB-435
MDA-N = system: MDA-N
MOLT-4 leukemia = system: MOLT-4 leukemia
NCI-H226 lung = system: NCI-H226 lung
NCI-H23 lung = system: NCI-H23 lung
NCI-H460 lung = system: NCI-H460 lung
NCI/ADR-RES ovarian = system: NCI/ADR-RES ovarian
OVCAR-3 ovarian = system: OVCAR-3 ovarian
OVCAR-4 ovarian = system: OVCAR-4 ovarian
OVCAR-5 ovarian = system: OVCAR-5 ovarian
OVCAR-8 ovarian = system: OVCAR-8 ovarian
PC-3 prostate = system: PC-3 prostate
RPMI-8226 leukemia = system: RPMI-8226 leukemia
RXF 393 renal = system: RXF 393 renal
SF-268 CNS = system: SF-268 CNS
SF-295 CNS = system: SF-295 CNS
SF-539 CNS = system: SF-539 CNS
SK-MEL-2 melanoma = system: SK-MEL-2 melanoma
SK-MEL-28 melanoma = system: SK-MEL-28 melanoma
SK-MEL-5 melanoma = system: SK-MEL-5 melanoma
SK-OV-3 ovarian = system: SK-OV-3 ovarian
SN12C renal = system: SN12C renal
SNB-19 CNS = system: SNB-19 CNS
SNB-75 CNS = system: SNB-75 CNS
SR leukemia = system: SR leukemia
SW-620 colon = system: SW-620 colon
T-47D breast = system: T-47D breast
TK-10 renal = system: TK-10 renal
U251 CNS = system: U251 CNS
UACC-257 melanoma = system: UACC-257 melanoma
UACC-62 melanoma = system: UACC-62 melanoma
UO-31 renal = system: UO-31 renal
NCI-H522 lung = system: NCI-H522 lung

CC1(C)C(=O)C2(C#N)CCC1C2 (centres undefined)
TGI (786-0 renal): > 100 µM | TGI (A498 renal): > 100 µM | TGI (A549 NSCLC): > 100 µM | TGI (ACHN renal): > 100 µM | TGI (BT-549 breast): > 100 µM | TGI (CAKI-1 renal): > 100 µM | TGI (CCRF-CEM leukemia): > 100 µM | TGI (COLO 205 colon): > 100 µM | TGI (DU-145 prostate): > 100 µM | TGI (EKVX NSCLC): > 100 µM | TGI (HCC-2998 colon): > 100 µM | TGI (HCT-116 colon): > 100 µM | TGI (HCT-15 colon): > 100 µM | TGI (HL-60(TB) leukemia): > 100 µM | TGI (HOP-62 NSCLC): > 100 µM | TGI (HOP-92 NSCLC): > 100 µM | TGI (HS 578T breast): > 100 µM | TGI (HT29 colon): > 100 µM | TGI (IGROV1 ovarian): > 100 µM | TGI (K-562 leukemia): > 100 µM | TGI (KM12 colon): > 100 µM | TGI (LOX IMVI melanoma): > 100 µM | TGI (M14 melanoma): > 100 µM | TGI (MALME-3M melanoma): > 100 µM | TGI (MCF7 breast): > 100 µM | TGI (MDA-MB-231 breast): > 100 µM | TGI (MDA-MB-435): > 100 µM | TGI (MDA-N): > 100 µM | TGI (MOLT-4 leukemia): > 100 µM | TGI (NCI-H226 lung): > 100 µM | TGI (NCI-H23 lung): > 100 µM | TGI (NCI-H460 lung): > 100 µM | TGI (NCI/ADR-RES ovarian): > 100 µM | TGI (OVCAR-3 ovarian): > 100 µM | TGI (OVCAR-4 ovarian): > 100 µM | TGI (OVCAR-5 ovarian): > 100 µM | TGI (OVCAR-8 ovarian): > 100 µM | TGI (PC-3 prostate): > 100 µM | TGI (RPMI-8226 leukemia): > 100 µM | TGI (RXF 393 renal): > 100 µM | TGI (SF-268 CNS): > 100 µM | TGI (SF-295 CNS): > 100 µM | TGI (SF-539 CNS): > 100 µM | TGI (SK-MEL-2 melanoma): > 100 µM | TGI (SK-MEL-28 melanoma): > 100 µM | TGI (SK-MEL-5 melanoma): > 100 µM | TGI (SK-OV-3 ovarian): > 100 µM | TGI (SN12C renal): > 100 µM | TGI (SNB-19 CNS): > 100 µM | TGI (SNB-75 CNS): > 100 µM | TGI (SR leukemia): > 100 µM | TGI (SW-620 colon): > 100 µM | TGI (T-47D breast): > 100 µM | TGI (TK-10 renal): > 100 µM | TGI (U251 CNS): > 100 µM | TGI (UACC-257 melanoma): > 100 µM | TGI (UACC-62 melanoma): > 100 µM | TGI (UO-31 renal): > 100 µM

COc1ccc(C(=O)c2ccc(-n3c4ccccc4c4ccc5c(c43)C(=O)C=CC5=O)cc2)cc1
TGI (786-0 renal): 1.3 µM | TGI (A498 renal): 5.09 µM | TGI (A549 NSCLC): 10.8 µM | TGI (ACHN renal): 1.8 µM | TGI (BT-549 breast): 8.06 µM | TGI (CAKI-1 renal): 0.366 µM | TGI (COLO 205 colon): 9.34 µM | TGI (DU-145 prostate): > 21.8 µM | TGI (EKVX NSCLC): 4.32 µM | TGI (HCC-2998 colon): 11.5 µM | TGI (HCT-116 colon): 2.77 µM | TGI (HCT-15 colon): 6.07 µM | TGI (HOP-62 NSCLC): 28.7 µM | TGI (HOP-92 NSCLC): 8.66 µM | TGI (HS 578T breast): 4.51 µM | TGI (HT29 colon): 3.65 µM | TGI (IGROV1 ovarian): 10.4 µM | TGI (K-562 leukemia): > 100 µM | TGI (KM12 colon): 10 µM | TGI (LOX IMVI melanoma): 4.31 µM | TGI (M14 melanoma): 7.45 µM | TGI (MCF7 breast): 2.6 µM | TGI (MDA-MB-231 breast): 5.22 µM | TGI (MDA-MB-435): 3.14 µM | TGI (MDA-N): 7.89 µM | TGI (MOLT-4 leukemia): > 100 µM | TGI (NCI-H226 lung): 69.4 µM | TGI (NCI-H23 lung): 5.18 µM | TGI (NCI-H460 lung): 19.3 µM | TGI (NCI-H522 lung): 0.936 µM | TGI (NCI/ADR-RES ovarian): > 21.3 µM | TGI (OVCAR-3 ovarian): 2.68 µM | TGI (OVCAR-4 ovarian): 6.37 µM | TGI (OVCAR-5 ovarian): 40.3 µM | TGI (PC-3 prostate): 3.3 µM | TGI (RPMI-8226 leukemia): > 100 µM | TGI (RXF 393 renal): 16 µM | TGI (SF-268 CNS): 2.33 µM | TGI (SF-295 CNS): 17.1 µM | TGI (SF-539 CNS): 5.78 µM | TGI (SK-MEL-2 melanoma): 11.3 µM | TGI (SK-MEL-5 melanoma): 12.9 µM | TGI (SK-OV-3 ovarian): 27.5 µM | TGI (SN12C renal): 4.01 µM | TGI (SNB-19 CNS): 11 µM | TGI (SNB-75 CNS): > 30.9 µM | TGI (SR leukemia): > 100 µM | TGI (T-47D breast): > 100 µM | TGI (TK-10 renal): 3.76 µM | TGI (U251 CNS): 3.54 µM | TGI (UACC-257 melanoma): 7.05 µM | TGI (UACC-62 melanoma): 8.02 µM | TGI (UO-31 renal): 1.07 µM

CC(=O)NNc1nc(C)c(C(/C=C/c2ccc(NC(C)=O)cc2)=N/NS(=O)(=O)c2ccc(C)cc2)s1
TGI (786-0 renal): > 100 µM | TGI (A498 renal): > 100 µM | TGI (A549 NSCLC): > 100 µM | TGI (ACHN renal): > 100 µM | TGI (BT-549 breast): > 100 µM | TGI (CAKI-1 renal): > 100 µM | TGI (CCRF-CEM leukemia): > 100 µM | TGI (COLO 205 colon): > 100 µM | TGI (DU-145 prostate): > 100 µM | TGI (EKVX NSCLC): > 100 µM | TGI (HCC-2998 colon): > 100 µM | TGI (HCT-116 colon): > 100 µM | TGI (HCT-15 colon): > 100 µM | TGI (HL-60(TB) leukemia): > 100 µM | TGI (HOP-62 NSCLC): > 100 µM | TGI (HOP-92 NSCLC): > 100 µM | TGI (HS 578T breast): > 100 µM | TGI (HT29 colon): > 100 µM | TGI (IGROV1 ovarian): > 100 µM | TGI (KM12 colon): > 100 µM | TGI (LOX IMVI melanoma): > 100 µM | TGI (M14 melanoma): > 100 µM | TGI (MALME-3M melanoma): > 100 µM | TGI (MCF7 breast): > 100 µM | TGI (MDA-MB-231 breast): > 100 µM | TGI (MDA-MB-435): > 100 µM | TGI (MDA-N): > 100 µM | TGI (MOLT-4 leukemia): > 100 µM | TGI (NCI-H226 lung): > 100 µM | TGI (NCI-H23 lung): > 100 µM | TGI (NCI-H460 lung): > 100 µM | TGI (NCI-H522 lung): > 100 µM | TGI (NCI/ADR-RES ovarian): > 100 µM | TGI (OVCAR-3 ovarian): > 100 µM | TGI (OVCAR-4 ovarian): > 100 µM | TGI (OVCAR-5 ovarian): > 100 µM | TGI (OVCAR-8 ovarian): > 100 µM | TGI (PC-3 prostate): > 100 µM | TGI (RPMI-8226 leukemia): > 100 µM | TGI (RXF 393 renal): > 100 µM | TGI (SF-268 CNS): > 100 µM | TGI (SF-295 CNS): > 100 µM | TGI (SF-539 CNS): > 100 µM | TGI (SK-MEL-2 melanoma): > 100 µM | TGI (SK-MEL-28 melanoma): > 100 µM | TGI (SK-MEL-5 melanoma): > 100 µM | TGI (SK-OV-3 ovarian): > 100 µM | TGI (SN12C renal): > 100 µM | TGI (SNB-19 CNS): > 100 µM | TGI (SNB-75 CNS): > 100 µM | TGI (SR leukemia): > 100 µM | TGI (SW-620 colon): > 100 µM | TGI (T-47D breast): > 100 µM | TGI (TK-10 renal): > 100 µM | TGI (U251 CNS): > 100 µM | TGI (UACC-257 melanoma): > 100 µM | TGI (UACC-62 melanoma): > 100 µM | TGI (UO-31 renal): > 100 µM
